ChEMBL document CHEMBL4610096, “Anti-inflammatory neo-Clerodane Diterpenoids from Ajuga pantantha” (J Nat Prod, 2020)
The source made the active and inactive calls. No cut-off for these calls is given here.

Legend:
BV-2 [1] = experiment: Antiinflammatory activity in mouse BV2 cells assessed as reduction in LPS-induced iNOS expression at 10 to 100 uM preincubated for 30 mins followed by LPS stimulation and measured after 24 hrs by Western blot analysis; format: functional, cell-based
BV-2 [2] = experiment: Antiinflammatory activity in mouse BV2 cells assessed as reduction in LPS-induced nitric oxide production by griess assay; format: functional, cell-based
BV-2 [3] = experiment: Cytotoxicity against mouse BV2 cells assessed as reduction in cell viability; format: cell-based
BV-2 [4] = experiment: Antiinflammatory activity in mouse BV2 cells assessed as reduction in LPS-induced COX2 expression at 10 to 100 uM preincubated for 30 mins followed by LPS stimulation and measured after 24 hrs by Western blot analysis; format: functional, cell-based

Row | Structure (SMILES) | IC50 (BV-2 [2]) [µM] | Activity (BV-2 [1]) | Activity (BV-2 [3]) | Activity (BV-2 [4])
1 | CSC(=N)N | 2.4 |  |  | 
2 | CC[C@H](C)C(=O)O[C@@H](C[C@@]1(C)[C@H](C)C[C@H](O)[C@]2(C)[C@@H]1CCC[C@H]2C(=O)OC)C1=CC(=O)OC1 | 45 |  | Non-Toxic | 

Now from value to compound, other results behind:

Row | IC50 (BV-2 [2]) [µM] | Structure (SMILES) | Activity (BV-2 [1]) | Activity (BV-2 [3]) | Activity (BV-2 [4])
3 | 25.8 | C/C=C(\C)C(=O)O[C@@H](C[C@@]1(C)[C@H](C)C[C@H](O)[C@]2(C)[C@@H]1CCC[C@H]2C(=O)OC)C1=CC(=O)OC1 | Active | Non-Toxic | Active
4 | 20.2 | C/C=C(\C)C(=O)OC[C@@]12[C@H](CCC[C@]1(O)CCl)[C@@](C)(CCC1=CC(=O)OC1)[C@H](C)C[C@@H]2O | Active | Non-Toxic | Active
5 | > 100 | COC(=O)C/C(C=O)=C\C[C@@]1(C)[C@H](C)C[C@H](OC(C)=O)[C@]2(COC(C)=O)[C@@H]1[C@H](O)CC[C@]21CO1 |  | Non-Toxic | 
